Test results from patent publication US20230085307A1, “PYRIDAZINONE COMPOUND AND HERBICIDE” (NISSAN CHEMICAL CORPORATION, priority 2019, published 2023).

What was measured:
redroot pigweed = test: Test Example 4: herbicidal effect by soil treatment (Table 19, symbol N); assay type: in vivo, redroot pigweed (Amaranthus retroflexus); conditions: amount of applied herbicide 320 g/ha
Outline: (§1)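 Step 1: sow seeds in sterilized diluvial soil, cover ~1.5 cm. Step 2: spray diluted emulsion onto soil surface at predetermined rate. Step 3: greenhouse, 25–30° C, three weeks. Step 4: grade effect on each plant by earlier criteria.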

barnyard grass = test: Test Example 5: herbicidal effect by foliage application, plastic box (Table 20, symbol H); assay type: in vivo, barnyard grass (Echinochloa crus-galli); conditions: foliage application, 320 g/ha, three weeks after application
Outline: (§2)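 Foliar spray test: emulsion formulation diluted in water to a set application rate, sprayed onto 14-day-old plants raised in diluvial soil at 25° C to 30° C under glass. Both herbicidal effect and crop effect rated visually three weeks later.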

oval-leafed pondweed [1] = test: Test Example 1: herbicidal activity, application before weed generation under submerged conditions (Table 16, symbol C); assay type: in vivo, oval-leafed pondweed (Monochoria vaginalis); conditions: amount of applied herbicide 320 g/ha
Outline: (§3)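 Submerged Wagner pots (alluvial soil, 4 cm water) sown with weed seeds and planted with 2.5-leaf rice seedlings; emulsifiable concentrate diluted in water applied to water surface on sowing day. Held in greenhouse at 25-30 °C; injury scored 0-5 by herbicidal rate after three weeks.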

wild oat = test: Test Example 5: herbicidal effect by foliage application, plastic box (Table 20, symbol I); assay type: in vivo, wild oat (Avena fatua); conditions: foliage application, 320 g/ha, three weeks after application
Outline: as §2

Japanese bulrush = test: Test Example 1: herbicidal activity, application before weed generation under submerged conditions (Table 16, symbol B); assay type: in vivo, Japanese bulrush (Schoenoplectus juncoides); conditions: amount of applied herbicide 320 g/ha
Outline: as §3

Chinese sprangletop = test: Test Example 3: herbicidal effect by foliage application, Wagner pot (Table 18, symbol D); assay type: in vivo, chinese sprangletop (Leptochloa chinensis); conditions: 320 g/ha
Outline: (§4)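 Plants were sown in alluvial soil held under 0.1–0.5 cm standing water and grown 14 days in a greenhouse at 25–30 °C. An emulsifiable formulation, water-diluted to the set dose, was then sprayed onto the foliage, and effects were scored three weeks later using previously defined criteria.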

southern crabgrass [2] = test: Test Example 4: herbicidal effect by soil treatment (Table 19, symbol F); assay type: in vivo, southern crabgrass (Digitaria ciliaris); conditions: amount of applied herbicide 320 g/ha
Outline: as §1

oval-leafed pondweed [3] = test: Test Example 2: herbicidal activity, application during weed generation under submerged conditions (Table 17, symbol C); assay type: in vivo, oval-leafed pondweed (Monochoria vaginalis); conditions: AAH 320 g/ha; application during weed generation, submerged conditions
Outline: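 3-wk visual-criteria score after one water-surface dose. Emulsion formulation, water-diluted to set rate; applied at 1–2 leaf stage; alluvial soil, 4 cm standing water; seeds co-sown; greenhouse 25–30° C.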

lambsquarters = test: Test Example 5: herbicidal effect by foliage application, plastic box (Table 20, symbol O); assay type: in vivo, lambsquarters (Chenopodium album); conditions: foliage application, 320 g/ha, three weeks after application
Outline: as §2

persian speedwell = test: Test Example 4: herbicidal effect by soil treatment (Table 19, symbol R); assay type: in vivo, Persian speedwell (Veronica persica); conditions: amount of applied herbicide 320 g/ha
Outline: as §1

windgrass [4] = test: Test Example 5: herbicidal effect by foliage application, plastic box (Table 20, symbol L); assay type: in vivo, windgrass (Apera spica-venti); conditions: foliage application, 320 g/ha, three weeks after application
Outline: as §2

late watergrass = test: Test Example 1: herbicidal activity, application before weed generation under submerged conditions (Table 16, symbol A); assay type: in vivo, late watergrass (Echinochloa oryzicola); conditions: amount of applied herbicide 320 g/ha
Outline: as §3

rice flat sedge = test: Test Example 3: herbicidal effect by foliage application, Wagner pot (Table 18, symbol E); assay type: in vivo, rice flat sedge (Cyperus iria); conditions: 320 g/ha
Outline: as §4

windgrass [5] = test: Test Example 4: herbicidal effect by soil treatment (Table 19, symbol L); assay type: in vivo, windgrass (Apera spica-venti); conditions: amount of applied herbicide 320 g/ha
Outline: as §1

southern crabgrass [6] = test: Test Example 5: herbicidal effect by foliage application, plastic box (Table 20, symbol F); assay type: in vivo, southern crabgrass (Digitaria ciliaris); conditions: foliage application, 320 g/ha, three weeks after application
Outline: as §2

green foxtail = test: Test Example 5: herbicidal effect by foliage application, plastic box (Table 20, symbol G); assay type: in vivo, green foxtail (Setaria viridis); conditions: foliage application, 320 g/ha, three weeks after application
Outline: as §2

Row | Structure (SMILES) | N: redroot pigweed, herbicidal effect grade (redroot pigweed) | H: barnyard grass, herbicidal effect grade (barnyard grass) | Herbicidal effect, C: oval-leafed pondweed (oval-leafed pondweed [1]) | I: wild oat, herbicidal effect grade (wild oat) | Herbicidal effect, B: Japanese bulrush (Japanese bulrush) | herbicidal effect on Chinese sprangletop (D) (Chinese sprangletop) | F: southern crabgrass, herbicidal effect grade (southern crabgrass [2]) | herbicidal effect rating, C: oval-leafed pondweed (oval-leafed pondweed [3]) | O: lambsquarters, herbicidal effect grade (lambsquarters) | R: persian speedwell, herbicidal effect grade (persian speedwell) | L: windgrass, herbicidal effect grade (windgrass [4]) | Herbicidal effect, A: late watergrass (late watergrass) | herbicidal effect on rice flat sedge (E) (rice flat sedge) | L: windgrass, herbicidal effect grade (windgrass [5]) | F: southern crabgrass, herbicidal effect grade (southern crabgrass [6]) | G: green foxtail, herbicidal effect grade (green foxtail)
1 | CCCC(=O)Oc1c(C)nn(C)c(=O)c1-c1c(-c2ccccc2OCC)sc2cc(Cl)ccc12 [3-040] | 4 (Herbicidal rate of 70% or more and less than 90%) | 5 (Herbicidal rate of 90% or more (almost completely withered)) | 2 (Herbicidal rate of 20% or more and less than 40%) | 1 (Herbicidal rate of 5% or more and less than 20%) | 3 (Herbicidal rate of 40% or more and less than 70%) | 0 (Herbicidal rate of 5% or less (almost no effect)) | 1 (Herbicidal rate of 5% or more and less than 20%) | 3 (Herbicidal rate of 40% or more and less than 70%) | 2 (Herbicidal rate of 20% or more and less than 40%) | 4 (Herbicidal rate of 70% or more and less than 90%) | 5 (Herbicidal rate of 90% or more (almost completely withered)) | 4 (Herbicidal rate of 70% or more and less than 90%) | 5 (Herbicidal rate of 90% or more (almost completely withered)) | 5 (Herbicidal rate of 90% or more (almost completely withered)) | 4 (Herbicidal rate of 70% or more and less than 90%) | 4 (Herbicidal rate of 70% or more and less than 90%)
2 | CCCOc1ccc2c(-c3c(O)c(C)nn(C)c3=O)c(-c3ccccc3OCC)sc2c1 [3-103] | 4 (Herbicidal rate of 70% or more and less than 90%) | 5 (Herbicidal rate of 90% or more (almost completely withered)) | 5 (Herbicidal rate of 90% or more (almost completely withered)) | 2 (Herbicidal rate of 20% or more and less than 40%) | 5 (Herbicidal rate of 90% or more (almost completely withered)) | 5 (Herbicidal rate of 90% or more (almost completely withered)) | 5 (Herbicidal rate of 90% or more (almost completely withered)) | 3 (Herbicidal rate of 40% or more and less than 70%) | 4 (Herbicidal rate of 70% or more and less than 90%) | 5 (Herbicidal rate of 90% or more (almost completely withered)) | 4 (Herbicidal rate of 70% or more and less than 90%) | 5 (Herbicidal rate of 90% or more (almost completely withered)) | 5 (Herbicidal rate of 90% or more (almost completely withered)) | 5 (Herbicidal rate of 90% or more (almost completely withered)) | 5 (Herbicidal rate of 90% or more (almost completely withered)) | 5 (Herbicidal rate of 90% or more (almost completely withered))
